From patent US20060241177A1, “Novel compounds, pharmaceutical compositions containing same, and methods of use for same” (priority 2002, published 2006)

Legend:
[1] = target: T1, Carnitine Palmitoyltransferase-1 (CPT-1) (Homo sapiens, UniProt P50416); assay: Carnitine palmitoyltransferase-1 (CPT-1) assay in permeabilized MCF-7 cells; format: cell-based; conditions: MCF at 10 ug.ml
T1 construct: This assay uses permeabilized cells to measure the transfer of [methyl-^14C]L-carnitine; endogenous in cells; host or cells: MCF-7 cells, digitonin-permeabilized
T1 sequence (P50416 1-773): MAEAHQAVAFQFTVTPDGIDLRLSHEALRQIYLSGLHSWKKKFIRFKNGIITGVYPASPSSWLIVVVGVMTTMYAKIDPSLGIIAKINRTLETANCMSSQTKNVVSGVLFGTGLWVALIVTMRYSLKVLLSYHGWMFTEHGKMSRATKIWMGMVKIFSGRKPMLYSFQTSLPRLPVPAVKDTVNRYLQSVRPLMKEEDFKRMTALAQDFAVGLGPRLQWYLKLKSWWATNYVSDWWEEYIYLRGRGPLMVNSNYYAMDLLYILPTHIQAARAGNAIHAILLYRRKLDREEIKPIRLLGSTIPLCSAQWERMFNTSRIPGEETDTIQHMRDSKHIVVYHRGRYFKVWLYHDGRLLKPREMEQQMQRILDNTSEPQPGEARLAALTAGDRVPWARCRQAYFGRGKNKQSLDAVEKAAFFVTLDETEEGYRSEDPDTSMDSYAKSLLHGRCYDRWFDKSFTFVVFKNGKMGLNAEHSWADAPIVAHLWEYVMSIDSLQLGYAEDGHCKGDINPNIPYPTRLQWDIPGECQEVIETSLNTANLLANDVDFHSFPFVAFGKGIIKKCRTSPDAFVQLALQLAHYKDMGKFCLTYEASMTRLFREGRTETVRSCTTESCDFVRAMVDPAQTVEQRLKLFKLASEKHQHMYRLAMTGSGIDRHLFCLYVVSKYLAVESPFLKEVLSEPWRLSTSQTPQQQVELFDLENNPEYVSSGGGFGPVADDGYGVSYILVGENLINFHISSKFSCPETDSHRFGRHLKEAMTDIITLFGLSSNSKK
Method: Carnitine Palmitoyltransferase-1 (CPT-1) Assay
CPT-1 catalyzes the ATP dependent transfer of long-chain fatty acids from acyl-CoA to acyl-carnitine that is inhibited by malonyl-CoA. As CPT-1 requires the mitochondrial membrane for activity, enzyme activity is measured in permeabilized cells or mitochondria This assay uses permeabilized cells to measure the transfer of [methyl-^14C]L-carnitine to the organically soluble acyl-carnitine deriviative.
MCF-7 cells are plated in DMEM with 10% fetal bovine serum at 10^6 cells in 24-well plates in triplicate for controls, drugs, and malonyl-CoA. Two hours before commencing the assay, drugs are added at the indicated concentrations made from stock solutions at 10 mg/ml in DMSO, vehicle controls consist of DMSO without drug. Since malonyl-CoA cannot enter intact cells, it is only added in the assay buffer to cells that have not been preincubated with drugs. Following overnight incubation at 37° C., the medium is removed and replaced with 700 μl of assay buffer consisting of: 50 mM imidazole, 70 mM KCl, 80 mM sucrose, 1 mM EGTA, 2 mM MgCl2, 1 mM DTT, 1 mM KCN, 1 mM ATP, 0.1% fatty acid free bovine serum albumin, 70 μM palmitoyl-CoA, 0.25 μCi [methyl-^14C]L-carnitine, 40 μg digitonin with drug, DMSO vehicle control, or 20 μM malonyl-CoA. […] The butanol phase is counted by liquid scintillation and represents the acylcarnitine derivative.

[2] = Weight loss screen in Balb/C mice; format: in vivo
Method: Weight Loss Screen for Novel FAS Inhibitors
Balb/C mice (Jackson Labs) are utilized for the initial weight loss screening. Animals are housed in temperature and 12 hour day/night cycle rooms and fed mouse chow and water ad lib. Three mice are utilized for each compound tested with vehicle controls in triplicate per experiment. For the experiments, mice are housed separately for each compound tested three mice to a cage. Compounds are diluted in DMSO at 10 mg/ml when given at a dose of 30 mg/kg, and 30 mg/ml when given at a dose of 60 mg/kg, and mice are injected intraperitoneally with 60 mg/kg in approximately 100 μl of DMSO or with vehicle alone. Mice are observed and weighed daily; average weights and standard errors are computed with Excel (Microsoft). The experiment continues until treated animals reach their pretreatment weights. Select compounds are tested in animals housed in metabolic cages.
Dosing of animals are identical to the screening experiments with three animals to a single metabolic cage. Animal weights, water and food consumption, and urine and feces production are measured daily. Three lean Balb/C mice (Harlan) maintained on mouse chow, are treated with compounds at doses indicated on day 0 or with vehicle (DMSO) control of equal volume. Compound 6 was solubilized in 40 μl DMSO while Compound 8 was solubilized in 60 μl DMSO. All were injected intraperitoneally. Weights were measured on days indicated. Error bars represent standard error of the mean.

[3] = 30 mg/kg i.p., day 1, three Balb/C mice per compound

Compound: C=CCNC(=O)[C@@H]1C(=C)C(=O)O[C@H]1CCCCCCCC (racemic)
- CPT I Stim [1]: 400% of control/MCF
- Deaths in weight loss screen ([2]; 60 mg/kg i.p., day 3, three Balb/C mice per compound): 3 of 3 dead

Compound: C=CCNC(=O)[C@@H]1C(=C)C(=O)O[C@H]1CCCCCC (racemic)
- Deaths in weight loss screen [2, 3]: 1 of 3 dead

Compound: C=CCNC(=O)[C@@H]1C(=C)C(=O)O[C@H]1CCCC (racemic)
- Deaths in weight loss screen ([2]; 30 mg/kg i.p., day 2, three Balb/C mice per compound): 3 of 3 dead

Compound: C=C1C(=O)O[C@@H](CCCCCCCC)[C@@H]1C(=O)NCC(=O)OC (racemic)
- Deaths in weight loss screen [2, 3]: 3 of 3 dead

Compound: C=C1C(=O)O[C@@H](CCCCCCCC)[C@@H]1C(=O)NCC(=O)O (racemic)
- Deaths in weight loss screen ([2]; 30 mg/kg i.p., day 6, three Balb/C mice per compound): 1 death
